Reference: ChEMBL document CHEMBL1201862, “PubChem BioAssay data set” (2004)
Counter-ions that a name gives are not always drawn. Each block holds one compound with its values, some of them ahead of it. The source made the active and inactive calls.

How the values were obtained:
[1] = viability of uninfected HEp-2 cells – cell-based, HTS, cytotoxicity control for RSV inhibitor project, dose response (AID 2410); assay type: functional; details: human respiratory syncytial virus
[2] = biological target: T1, Aryl hydrocarbon receptor (Homo sapiens, UniProt P35869); assay: Luminescence-based cell-based high throughput dose response assay for activators of the Aryl Hydrocarbon Receptor (AHR). [Related pubchem assays: 2796 (Primary screen (AHR activators in singlicate)), 2845 (Confirmation screen (AHR activators in triplicate)), 434939 (Counterscreen (PXR activators in triplicate)), 2804 (Summary (AHR activators))]; assay type: ADME
T1 sequence (P35869 whole entry): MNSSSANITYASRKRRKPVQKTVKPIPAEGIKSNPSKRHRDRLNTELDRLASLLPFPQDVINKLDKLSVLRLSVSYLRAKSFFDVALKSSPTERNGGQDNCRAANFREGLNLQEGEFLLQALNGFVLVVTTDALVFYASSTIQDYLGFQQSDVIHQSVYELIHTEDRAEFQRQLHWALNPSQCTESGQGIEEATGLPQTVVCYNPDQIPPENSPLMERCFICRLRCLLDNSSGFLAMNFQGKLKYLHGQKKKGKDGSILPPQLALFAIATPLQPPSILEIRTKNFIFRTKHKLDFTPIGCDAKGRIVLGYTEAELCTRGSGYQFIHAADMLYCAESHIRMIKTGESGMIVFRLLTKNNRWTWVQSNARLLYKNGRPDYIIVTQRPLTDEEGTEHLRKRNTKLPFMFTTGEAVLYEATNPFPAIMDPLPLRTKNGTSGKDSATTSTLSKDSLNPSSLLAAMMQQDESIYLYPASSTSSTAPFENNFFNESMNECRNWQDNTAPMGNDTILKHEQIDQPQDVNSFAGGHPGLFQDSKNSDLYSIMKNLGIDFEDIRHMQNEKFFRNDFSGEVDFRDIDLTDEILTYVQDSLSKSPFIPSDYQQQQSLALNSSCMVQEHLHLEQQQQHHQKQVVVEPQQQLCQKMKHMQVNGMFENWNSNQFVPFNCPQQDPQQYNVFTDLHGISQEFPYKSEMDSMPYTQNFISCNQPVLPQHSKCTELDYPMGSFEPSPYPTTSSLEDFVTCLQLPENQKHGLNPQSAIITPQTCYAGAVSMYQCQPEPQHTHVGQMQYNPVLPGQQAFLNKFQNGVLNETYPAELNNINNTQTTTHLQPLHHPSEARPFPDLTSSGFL

[3] = biological target: FAD-linked sulfhydryl oxidase ALR (Homo sapiens, UniProt P55789); assay: ALR-catalysed DTT oxidation blockers – biochemical, H2O2 detection, luminescence, cherry-pick, dose response (AID 493248)
Chain of FAD-linked sulfhydryl oxidase ALR (P55789 whole entry): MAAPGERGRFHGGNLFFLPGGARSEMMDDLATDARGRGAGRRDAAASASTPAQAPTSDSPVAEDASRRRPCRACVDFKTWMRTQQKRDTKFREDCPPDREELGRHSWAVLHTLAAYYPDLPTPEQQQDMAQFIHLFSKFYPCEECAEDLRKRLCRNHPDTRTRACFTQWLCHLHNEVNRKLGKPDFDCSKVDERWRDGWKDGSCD

[4] = viability loss in HeLa cells – cytotoxicity control for MgcRacGAP inhibitor project, dose response (AID 624300); assay type: functional
[5] = biological target: T2, Rac GTPase-activating protein 1 (Homo sapiens, UniProt Q9H0H5); assay: blockers of MgcRacGAP-driven Rac1 GTP hydrolysis – biochemical, ADP Hunter fluorescence, primary and confirmatory, confirmation (AID 624330); assay type: functional
T2 sequence (Q9H0H5 whole entry): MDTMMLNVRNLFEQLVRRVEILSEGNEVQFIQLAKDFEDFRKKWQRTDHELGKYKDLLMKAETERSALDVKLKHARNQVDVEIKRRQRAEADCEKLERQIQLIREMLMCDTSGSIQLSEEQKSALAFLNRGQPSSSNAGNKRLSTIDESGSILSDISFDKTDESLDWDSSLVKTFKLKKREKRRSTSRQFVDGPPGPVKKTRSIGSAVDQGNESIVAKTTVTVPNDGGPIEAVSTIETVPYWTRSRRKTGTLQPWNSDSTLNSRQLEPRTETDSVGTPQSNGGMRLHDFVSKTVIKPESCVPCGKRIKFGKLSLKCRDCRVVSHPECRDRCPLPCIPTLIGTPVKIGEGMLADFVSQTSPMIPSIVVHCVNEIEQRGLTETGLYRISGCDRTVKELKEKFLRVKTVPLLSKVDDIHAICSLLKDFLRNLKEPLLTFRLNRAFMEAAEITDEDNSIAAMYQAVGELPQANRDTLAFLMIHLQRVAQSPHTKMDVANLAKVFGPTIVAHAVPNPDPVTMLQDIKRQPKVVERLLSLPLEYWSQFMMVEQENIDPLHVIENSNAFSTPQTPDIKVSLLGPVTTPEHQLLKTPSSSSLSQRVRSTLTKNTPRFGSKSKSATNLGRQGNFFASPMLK

[6] = blockers of HIV-1 envelope-mediated cell-cell fusion – cherry-pick, dose response (AID 652057); assay type: functional, cell-based
[7] = blockers of HIV-1 ZM109 envelope-driven cell-cell fusion – HeLa effector, CEM target cells, luciferase, cherry-pick, dose response (AID 652058); assay type: functional, cell-based;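 also: luciferase signal from HIV-1 Env mediated cell-cell fusion of effector and target cells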
Paired box protein Pax-8 = Paired box protein Pax-8 (Homo sapiens, UniProt Q06710); assay: PAX8 transcriptional activity inhibition in RMG-I – RMG-I cells, luciferase, cherry-pick, dose response (AID 687027); assay type: functional, cell-based;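 also: luciferase reporter driven by Pax8 target thyroperoxidase promoter measured by SteadyGlo luminescence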
Chain of Paired box protein Pax-8 (Q06710 whole entry, the tested form may be a part): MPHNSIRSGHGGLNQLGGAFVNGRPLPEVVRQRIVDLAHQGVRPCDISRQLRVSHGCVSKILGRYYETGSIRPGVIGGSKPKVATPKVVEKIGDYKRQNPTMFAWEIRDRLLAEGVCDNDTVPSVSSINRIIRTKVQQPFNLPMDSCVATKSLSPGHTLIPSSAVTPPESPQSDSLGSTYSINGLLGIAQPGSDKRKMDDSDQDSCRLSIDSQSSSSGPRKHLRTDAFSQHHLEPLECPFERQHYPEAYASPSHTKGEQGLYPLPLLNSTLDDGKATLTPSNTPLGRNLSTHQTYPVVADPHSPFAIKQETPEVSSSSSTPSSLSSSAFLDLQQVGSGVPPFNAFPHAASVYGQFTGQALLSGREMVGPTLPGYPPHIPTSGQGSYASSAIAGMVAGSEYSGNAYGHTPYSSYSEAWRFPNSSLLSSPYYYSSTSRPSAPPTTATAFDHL

[8] = off-target signal loss in HeLa-CEM21 co-culture – HeLa F-luc CTL cells, cherry-picked, counter-screen for HIV-1 Env fusion inhibitor project, dose response (AID 652040); assay type: functional, cell-based;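 also: potency for signal decrease marking cytotoxic or nonspecific inhibition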
[9] = HIV-1 AD8 envelope cell-cell fusion blockers – cherry-pick, dose response (AID 652062); assay type: functional, cell-based;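 also: luciferase signal from cell-cell fusion driven by HIV-1 clade B AD8 Env; potency is for inhibitors of fusion seen as a drop in luminescence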
[10] = A549 cell cytotoxicity, dose response, cytotoxicity control, plate reader, cherry-pick, antagonist series (AID 743412); assay type: functional, cell-based
[11] = blockers of bursicon-stimulated LGR2 cAMP reporter – cell-based, HEK293, CRE-luciferase reporter, cherry pick, set 2, dose response (AID 743343); assay type: functional;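 also: transfected cells were stimulated with diluted bursicon conditioned medium after compound addition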
[12] = blockade of melanocortin 4 receptor signaling – cell-based, plate reader, cherry pick, counter-screen for LGR2 antagonist project, dose response (AID 743444); assay type: functional;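 also: transfected HEK 293 cells stimulated with alpha-MSH peptide; potency of inhibitors of the alpha-MSH evoked signal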
[13] = biological target: T3, Oxysterols receptor LXR-beta (Homo sapiens, UniProt P55055); assay type: functional, cell-based;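 also: Cell-based luminescence dose-response assay of agonist activity at LXR, run as a confirmatory counterscreen to a daf-12 agonist screen; HEK293 cells with Gal4-LXR fusion and GAL4-driven luciferase reporter; agonist potency from rising luciferase signal of a Gal4-LXR reporter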
T3 sequence (P55055 whole entry): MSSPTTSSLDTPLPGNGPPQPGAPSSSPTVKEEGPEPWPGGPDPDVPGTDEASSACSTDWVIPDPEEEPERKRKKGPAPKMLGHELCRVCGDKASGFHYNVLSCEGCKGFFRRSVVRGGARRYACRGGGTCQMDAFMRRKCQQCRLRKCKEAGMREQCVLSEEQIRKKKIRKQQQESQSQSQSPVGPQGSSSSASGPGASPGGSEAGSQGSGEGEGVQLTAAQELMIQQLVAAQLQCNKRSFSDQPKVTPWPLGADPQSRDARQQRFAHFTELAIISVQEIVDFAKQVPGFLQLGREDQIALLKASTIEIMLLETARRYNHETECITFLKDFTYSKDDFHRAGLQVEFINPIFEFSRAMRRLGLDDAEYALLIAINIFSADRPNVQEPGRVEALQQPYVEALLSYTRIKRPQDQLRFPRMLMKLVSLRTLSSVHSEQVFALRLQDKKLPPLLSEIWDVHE

[14] = P. falciparum Dd2 growth inhibitors, dose response, SYBR Green, cherry-picked samples (AID 1159567); assay type: functional, cell-based
[15] = toxicity to human hepatoma HepG2 cells – cell-based, cherry-picked samples, cytotoxicity control, dose response (AID 1159577); assay type: functional
[16] = biological target: T4, RNA-editing ligase 1, mitochondrial (Trypanosoma brucei brucei, UniProt P86926); assay: inhibition of trypanosome RNA editing ligase – biochemical, fluorescence, Trypanosoma brucei, dose response (AID 1117295); assay type: functional
T4 sequence (P86926 whole entry): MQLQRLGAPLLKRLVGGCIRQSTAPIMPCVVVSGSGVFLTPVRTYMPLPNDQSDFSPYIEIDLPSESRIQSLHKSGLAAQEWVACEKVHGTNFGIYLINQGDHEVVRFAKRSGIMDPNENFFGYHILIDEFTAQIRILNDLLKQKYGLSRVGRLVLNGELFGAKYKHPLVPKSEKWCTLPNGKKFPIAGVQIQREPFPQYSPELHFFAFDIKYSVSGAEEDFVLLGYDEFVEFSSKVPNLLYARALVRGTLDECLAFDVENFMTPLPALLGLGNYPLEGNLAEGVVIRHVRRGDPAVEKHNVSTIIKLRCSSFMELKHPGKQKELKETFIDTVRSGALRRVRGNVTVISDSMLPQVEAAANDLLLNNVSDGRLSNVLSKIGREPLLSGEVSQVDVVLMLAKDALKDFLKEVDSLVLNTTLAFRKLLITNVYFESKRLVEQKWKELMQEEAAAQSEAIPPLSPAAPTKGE

[17] = growth inhibition of yeast DHODH-expressing 3D7 parasites – SYBR Green, dry powder samples, dose response (AID 1159570); assay type: functional, cell-based;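 also: parasite growth measured after 72 hours of compound exposure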
[18] = toxicity to human HepG2 hepatoma cells – cell-based, plate reader, dry powder samples, cytotoxicity control, dose response (AID 1159569); assay type: functional;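 also: inhibitor potency with signal falling toward the positive control level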
[19] = Dd2 malaria parasite growth inhibition potency – SYBR Green, dry powder samples, dose response (AID 1159566); assay type: functional, cell-based;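 also: potency for growth inhibition with lower SYBR green DNA signal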
[20] = growth inhibition of PfATP4-mutant resistant parasites – NITD609-resistant line, SYBR Green, dry powder, dose response (AID 1159571); assay type: functional, cell-based;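 also: parasites synchronized at ring stage by sorbitol before testing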
NADPH oxidase 1 = biological target: T5, NADPH oxidase 1 (Homo sapiens, UniProt Q9Y5S8); assay type: functional, cell-based;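 also: Cell-based assay with luminescence read-out, IC50 derived from inhibitor dose-response curves; intracellular ROS from endogenous NOX1 in intact HT29 colon cancer cells; potency of inhibitors that lower the ROS luminescence signal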
T5 sequence (Q9Y5S8 whole entry): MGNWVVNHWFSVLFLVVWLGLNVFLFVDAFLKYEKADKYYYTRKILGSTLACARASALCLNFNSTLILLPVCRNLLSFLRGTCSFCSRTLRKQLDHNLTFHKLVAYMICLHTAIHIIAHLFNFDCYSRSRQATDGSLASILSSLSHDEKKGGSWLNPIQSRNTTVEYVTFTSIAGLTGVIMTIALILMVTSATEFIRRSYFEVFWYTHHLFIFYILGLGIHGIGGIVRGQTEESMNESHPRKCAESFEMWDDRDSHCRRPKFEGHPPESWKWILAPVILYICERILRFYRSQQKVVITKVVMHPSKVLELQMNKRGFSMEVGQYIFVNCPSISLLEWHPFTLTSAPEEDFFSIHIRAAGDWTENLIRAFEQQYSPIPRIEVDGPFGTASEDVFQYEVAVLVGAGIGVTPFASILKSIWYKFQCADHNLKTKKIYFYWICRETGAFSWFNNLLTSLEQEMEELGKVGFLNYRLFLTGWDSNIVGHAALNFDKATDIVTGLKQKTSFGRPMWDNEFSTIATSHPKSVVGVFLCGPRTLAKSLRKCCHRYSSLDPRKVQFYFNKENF

EC50 [2]: 3.46 µM (active)
AC50 [3]: 0.285 µM (active)
IC50 [5]: 74 µM (active)
SMILES: COc1ccc(/C=N/Nc2nc3ccccc3[nH]2)cc1OC
CC50 [1]: 20.8 µM (active)
CC50 [4]: 100 µM (active)

SMILES: Cc1ccsc1/C=N/Nc1cccc(C(=O)O)c1
IC50 [5]: 92.5 µM (active)
AC50 [6]: 1.32 µM (active)
AC50 [7]: 7.12 µM (active)
AC50 (Paired box protein Pax-8): 4.41 µM (active)
AC50 [8]: 2.45 µM (active)
AC50 [9]: 2.65 µM (active)
AC50 [10]: > 52 µM (inactive)
AC50 [11]: 1.3 µM (active)
AC50 [12]: 1.14 µM (active)
EC50 [13]: > 67.5 µM (inactive)
EC50 (cells): > 67.5 µM (inactive)

SMILES: C/C(=N/N=C(/C)c1cccs1)c1cccs1
EC50 [13]: > 67.6 µM (inactive)
EC50 (cells): > 67.6 µM (inactive)

SMILES: CN(C)CC(=O)N[C@@H]1C[C@@H]2O[C@@H](CO)CC[C@@H]2O[C@@H]1CCc1ccc(C2=CCCCC2)cc1
AC50 [14]: 6.13 µM (active)
AC50 [15]: 27.7 µM (active)

IC50 [16]: > 96.6 µM (inactive)
SMILES: COC(=O)C1=C(C)N(Cc2cccc(C(F)(F)F)c2)C(NCc2cc(OC)c(OC)c(OC)c2)=NC1CCc1ccccc1 (centres undefined)

SMILES: C[C@@H]1CN([C@H](C)CO)C(=O)c2cc(C#Cc3ccccc3)cnc2O[C@H]1CN(C)C(=O)CCN1CCCCC1
AC50 [17]: 2.34 µM (active)
AC50 [18]: 22.9 µM (active)
AC50 [14]: 2.23 µM (active)
AC50 [19]: 1.49 µM (active)
AC50 [15]: 35.6 µM (active)
AC50 [20]: 1.79 µM (active)

IC50 (NADPH oxidase 1): > 17 µM (not active)
AC50 [3]: 1.28 µM (active)
SMILES: CN(C)CCCN1c2ccccc2Sc2ccccc21 [PROMAZINE HYDROCHLORIDE]
